US20240366587A1, “USES OF A SOMATOSTATIN MODULATOR FOR THE TREATMENT OF DISEASE” (Crinetics Pharmaceuticals, Inc., priority 2021, published 2024)

Experiments:
[1] = Phase 1 multi-cohort single dose study: relative bioavailability and PK of SDD tablets vs HMG capsules; assay type: in vivo, human
Method: The study was conducted in up to 3 cohorts, each with a specific primary objective: • Cohort 1: To characterize performance of 10 mg tablets prepared by spray-dried dispersion (SDD) of Compound A-HCl salt. • Cohort 2: To evaluate the relative bioavailability of 10 mg SDD tablets compared to the Compound A-HCl hot melt granulation (HMG) formulation, 10 mg capsules. To determine the effect of timing of food administration on pharmacokinetics of low dose of the 10 mg SDD tablets. • Cohort 3: To determine the effect of timing of food administration on pharmacokinetics of SDD tablets and dose proportionality in doses higher than 20 mg. To determine the optimal dosing regimen that results in adequate systemic exposure with short post-dose fasting duration. • Cohort 4: To determine the effect of timing of food administration on pharmacokinetics of SDD tablets in doses higher than 20 mg. To determine the optimal dosing regimen of paltusotine that results in high systemic exposure with low post-dose fasting duration • Cohort 5: To determine the effect of the proton-pump inhibitor (PPI), lansoprazole, on the pharmacokinetics of a 60 mg dose of SDD tablets. To determine the effect of a low-fat meal on the pharmacokinetics of a 60 mg dose of SDD tablets.
The SDD tablets were evaluated. Up to twelve (12) healthy male and female subjects were enrolled in each cohort. Cohort 1 consisted of 4 periods: In Period 1, subjects were administered a proton-pump inhibitor (lansoprazole, 15 mg BID for 3 days (from Day −3), taken orally at least 30 min prior to a meal, once in the morning and once in the evening). On the fourth day (Day 1 of study), fasted subjects will take the last dose of lansoprazole (15 mg) 60 min prior to 20 mg Compound A (2×10 mg of the SDD tablets). In Period 2, fasted subjects were administered 20 mg Compound A (2×10 mg of the SDD tablets). In Period 3, fasted subjects were administered 20 mg Compound A (2×10 mg of the SDD tablets) with a high-fat, high-calorie meal. In Period 4, fasted subjects will take up to 80 mg Compound A (up to 8×10 mg of the SDD tablets). […]

[2] = tested on: subjects with acromegaly; test: ACROBAT Advance long-term study: safety and tolerability; assay type: in vivo, human; conditions: acromegaly patients; including in combination with cabergoline
Method: ACROBAT Advance is an ongoing open-label, long-term (5 year) safety and efficacy study of paltusotine in patients rolling-over from the ACROBAT Evolve & Edge studies.
Eligible patients completing ACROBAT Edge and Evolve entered ACROBAT Advance either immediately on completion of a washout period in the parent study or after a gap during which they reverted to their routine standard of care treatment. Paltusotine therapy: initiated at 10 mg/day and titrated up to maximum dose of 40 mg/day based on IGF-1 and tolerability. Patients were administered 10 mg HMG capsules. Combination therapy was allowed for patients not reaching therapeutic targets with 40 mg/day of paltusotine monotherapy.

In the case of `N#Cc1cccc(-c2ccc3ncc(-c4cc(F)cc(F)c4)c(N4CCC(N)CC4)c3c2)c1O` [Compound A, 3-(4-(4-amino-piperidin-1-yl)-3-(3,5-difluoro-phenyl)-quinolin-6-yl)-2-hydroxy-benzonitrile], the “reduction of exposures (Cmax and AUC) when administered with PPI” value ([1]; Cohort 5, 60 mg SDD tablets) is reported as about 40%, the “reduction of exposures (Cmax and AUC) when administered with low-fat meal” value ([1]; Cohort 5, 60 mg SDD tablets) is reported as about 60% and the “reduction of exposures when administered with high-fat meal” value ([1]; SDD tablets) is reported as over 80%. For the same compound, the “tolerability and safety profile” value [2] was “well tolerated with a safety profile similar to that of SRLs”.
